In publication PMC4874602 (ACS Infectious Diseases, 2016):
Where two headings read alike, the source gives them in different places.

Key:
[1] = C3HeB/FeJ
[2] = lung; single dose of 25 mg/kg BDQ; BALB/c and C3HeB/FeJ
[3] = tested on: Mycobacterium tuberculosis; conditions: cited from earlier work
[4] = cited from earlier work
[5] = BALB/c, single 25 mg/kg oral dose of BDQ
[6] = lesion (type I), single 25 mg/kg oral dose of BDQ
[7] = plasma, single 25 mg/kg oral dose of BDQ
[8] = uninvolved lung, single 25 mg/kg oral dose of BDQ
[9] = whole lung, single 25 mg/kg oral dose of BDQ

For `CNCCC(O)(c1cccc2ccccc12)C(c1ccccc1)c1cc2cc(Br)ccc2nc1OC` (stereo not shown) [M2, N-desmethyl-BDQ], the “concentration in dissected caseum of type I granulomas (LC/MS/MS)” value ([1]; 8 h following a single 25 mg/kg dose of BDQ, preliminary) was 587.5 ng/g, the Cmax ([1]; lesion (caseous necrotic granuloma, type I), single 25 mg/kg oral dose of BDQ) was 26.8 µg/g and the AUC168h [1, 6] was 2848 µg·h/g. For the same molecule, the Tmax [1, 6] was 24 h, the t1/2 [1, 6] was 98.6 h and the AUC168h [1, 7] was 69.3 µg·h/mL. For the same molecule, the Cmax [1, 7] was 0.70 µg/mL, the Tmax [1, 7] was 24 h and the “plasma exposure (AUC168h) as printed in the discussion” value [1, 7] was 69.3 µg·h/g. For the same molecule, the t1/2 ([1]; plasma, single 25 mg/kg oral dose of BDQ, 72–168 h terminal) was 55.9 h, the AUC168h [1, 8] was 4895 µg·h/g and the Cmax [1, 8] was 46.9 µg/g. For the same molecule, the Tmax [1, 8] was 24 h, the t1/2 [1, 8] was 89.4 h and the AUC168h [1, 9] was 5254 µg·h/g. The Cmax [1, 9] was 45.4 µg/g, the Tmax [1, 9] was 24 h and the t1/2 [1, 9] was 134.7 h. The “tmax by MALDI-MSI” value [2] was 24 h, the “MIC relative to BDQ” value [3] was “approximately five times higher than that of BDQ” and the protein bound [4] was “more than 99%”. For the same molecule, the Cmax ([5]; lesion (cellular non-necrotizing, type III)) was 82.7 µg/g, the AUC168h ([5]; lesion (type III)) was 7619 µg·h/g and the Tmax ([5]; lesion (type III)) was 24 h. The t1/2 ([5]; lesion (type III)) was 90.7 h, the AUC168h ([5]; plasma) was 57.3 µg·h/mL and the Cmax ([5]; plasma) was 0.76 µg/mL. For the same molecule, the Tmax ([5]; plasma) was 8 h, the t1/2 ([5]; plasma, 72–168 h terminal) was 59.8 h and the AUC168h ([5]; uninvolved lung) was 8825 µg·h/g. For the same molecule, the Cmax ([5]; uninvolved lung) was 111.8 µg/g, the Tmax ([5]; uninvolved lung) was 24 h and the t1/2 ([5]; uninvolved lung) was 69.7 h. The AUC168h ([5]; whole lung) was 7207 µg·h/g, the Cmax ([5]; whole lung) was 69.5 µg/g and the Tmax ([5]; whole lung) was 24 h. For the same molecule, the t1/2 ([5]; whole lung) was 90.6 h.
